In one test the test system is HIV. The test can be described thus: Activity against HIV and other sexually transmitted diseases. The conditions noted are these: by comparison with dextrin 2- and 6-sulphates.

Here are results for two substances from patent publication US20060234977A1, “Antiviral compostion comprising a sulphated glucose polymer and a bacteriostatic agent” (priority 2003, published 2006).

On to Dextrin 3-sulphate [Example 1], for which the “activity against HIV and other sexually transmitted diseases (STDs)” value in the test on HIV is reported as “relatively poor activity”.
As for dextrin sulphate, in the test “Spermicidal activity”, the spermicidal activity entry is “little or no spermicidal activity”.
